# Values quoted from earlier work, collected in article PMC11238383, “A review on the cultivation, bioactive compounds, health-promoting factors and clinical trials of medicinal mushrooms Taiwanofungus camphoratus, Inonotus obliquus and Tropicoporus linteus” (Fungal Biology and Biotechnology, 2024).
# Read-outs that look alike come from different tables or passages of the source.
# Key:
# [1] = test system: Polyinosinic-polycytidylic acid (poly IC)-induced RAW 264.7 cells
# P. gingivalis = settings: ref [131], [132], [133]
# H1N1 neuraminidase = settings: ref [13]
# [2] = for antioxidant activity: ref Lee et al. [226]; for reducing power: ref [133]
# Influenza A H1N1 virus = test system: Influenza A H1N1 virus; set-up: method as in Hwang et al. [13]; settings: 10 uM; ref Hwang et al. [13]
# MDA-MB-231 cells = settings: 10 µg/mL alone; ref [226]
# normal cells (LO2) = settings: ref [63]
# [3] = test system: human cancer cells (U251, HL60, SW480, and A549); settings: ref [63]
# [4] = test system: High-fat diet-induced C57BL/6J mice; set-up: method as in Lin et al. [175]; settings: ref Lin et al. [175]
# [5] = test system: High-fat diet-induced C57BL/6J mice; set-up: method as in Lin et al. [175]; settings: ref Lin et al. [175]; remark: listed apart in the source
# [6] = test system: Severe acute respiratory syndrome coronavirus 2 (SARS-CoV-2) virus-infected HepG2 cells; set-up: method as in Li et al. [35], [38]; settings: ref Li et al. [35], [38]
# MIN6N beta-cells = test system: MIN6N beta-cells; set-up: method as in Lee et al. [235]; settings: 10–70 uM, dose-dependent, ref Lee et al. [235]
# [7] = test system: Oleic and palmitic acids (O/P) lipid accumulation-induced HepG2 cells; set-up: method as in Chiu et al. [138]; settings: ref Chiu et al. [138]
# [8] = test system: AGS, MCF-7, and PC3 cancer cells; set-up: method as in PMID 32899899; settings: ref [95]
# NO = test system: NO; set-up: method as in Park et al. [99]; settings: ref Park et al. [99]
# [9] = test system: mouse melanoma and human lung cancer cells; set-up: method as in PMID 18239302; settings: ref [135]
# U251 and MCF-7 = test system: U251 and MCF-7; set-up: method as in PMID 31891260; settings: ref [61]
# [10] = set-up: method as in PMID 31891260; settings: ref [61]
# [11] = test system: human adenocarcinoma and human lung carcinoma cell lines; set-up: method as in doi:10.1016/j.jff.2020.104025; settings: ref [97]
# [12] = test system: glioblastoma-xenografted mice; set-up: method as in Yang et al. [70]; settings: in vivo; ref Yang et al. [70]
# human glioblastoma cells = test system: human glioblastoma cells; set-up: method as in Yang et al. [70]; settings: in vitro; ref Yang et al. [70]
# aldose reductase = test system: aldose reductase; set-up: method as in Lee et al. [136]; settings: ref Lee et al. [136]
# A549 and HeLa cell lines = settings: ref [105]
# [13] = test system: H2O2)-injured human neuroblastoma cells; set-up: method as in PMID 33084385; settings: ref [108]
# [14] = set-up: method as in Zhang et al. [179]; settings: DPPH assay; ref Zhang et al. [179]
# [15] = test system: inducible-nitric oxide synthase (iNOS) protein; set-up: method as in PMID 33434790; settings: ref [107]
molecule,measurement,setting,value
4-acetylantroquinonol B,IC50,"[1]; ref Tu et al. [186], read-out: IC50 of NO production",0.57 µM
same,NO production,[1]; ref [72],significantly inhibited
"C=C1CCCC(C)(C)C1CC/C(C)=C/CO (single isomer, unassigned; (-)) [(-)-trans-γ-monocyclofarnesol]",antimicrobial activity,P. gingivalis,antimicrobial effects
"CC(=O)C=Cc1ccc(O)c(O)c1 [4-(3,4-Dihydroxyphenyl)-3-buten-2-one]",IC50,H1N1 neuraminidase,52 µM
same,neuraminidase activity,H1N1 neuraminidase,inhibit neuraminidase activity
same,antioxidant activity,[2],"Potent antioxidant activity, with higher antioxidant activity than BHA and Trolox in FRAP assay"
same,visible cytopathic effects,Influenza A H1N1 virus,"10 uM of both inhibited the formation of visible cytopathic effects, with IC50 values lower than Oseltamivir"
O=c1[nH]cc(F)c(=O)[nH]1 [5-fluorouracil],inhibition in cell growth,MDA-MB-231 cells,12.6%
"C=C1CC(O)CC(C)(C)C1/C=C/C(C)=C/C(=O)O (stereo not drawn) [(2E,4E)-4′-Hydroxy-γ-ionylideneacetic acid]",reducing power,[2],weak reducing power
"C=C1CCCC(C)(C)C1/C=C/C(C)=C/C(=O)O (stereo not drawn) [(2E,4E)-γ-Ionylideneacetic acid]",reducing power,[2],weak reducing power
C=C1CCCC(C)(C)C1C=CC(C)=CC(=O)O (stereo not drawn) [( +)-γ-ionylideneacetic acid],antimicrobial activity,P. gingivalis,did not show any detectable activities
C=C(CC[C@@H](C)[C@H]1CC[C@@]2(O)C3=C(C(=O)C[C@]12C)[C@@]1(C)CCC(=O)[C@@H](C)[C@@H]1CC3=O)C(C)C(=O)OCC (stereo partly drawn) [Antcamphin Z],effect on normal cells,normal cells (LO2),no significant effects on normal cells
same,cytotoxicity,[3],potent cytotoxic activities
"O=C(O)/C=C/c1ccc(O)c(O)c1 [Caffeic acid, caffeic acid]",antioxidant activity,[2],"Potent antioxidant activity, with higher antioxidant activity than BHA and Trolox in FRAP assay"
C=C(CC[C@@H](C(=O)O)[C@H]1CC[C@@]2(C)C3=C(CC[C@]12C)[C@@]1(C)CC[C@H](O)C(C)(C)[C@@H]1CC3)C(C)C [Eburicoic acid],PPAR-α expression in the liver,[4],Increased expression of PPAR-α in the liver which facilitated fatty acid oxidation and the reduction of lipid levels
same,"AMPK phosphorylation, Akt, membrane GLUT4",[5],"Increase AMPK phosphorylation, Akt, and membrane GLUT4 level"
"O=c1cc(O)cc(/C=C/c2ccc(O)c(O)c2)o1 [Hispidin, hispidin]",ACE2 gene expression,[6],Reduced the expression of angiotensin-converting enzyme 2 (ACE2) gene
same,highest ROS scavenging activity,MIN6N beta-cells,"10–70 uM had notable reactive oxygen species (ROS) scavenging activity in a dose-dependent manner, with the highest activity being 65%"
same,highest ROS scavenging activity,MIN6N beta-cells; listed as hispidin,about 65%
same,lipid accumulation,[7],Significant reduction in lipid accumulation
CC(C)=CC[C@@H](O)[C@@H](C)[C@H]1CC[C@@]2(C)C3=C(CC[C@]12C)[C@@]1(C)CC[C@H](O)C(C)(C)[C@@H]1CC3 [Inotodiol],anti-proliferative activity,[8],anti-proliferative activities
same,NO inhibition,NO,NO-inhibiting effects
"CCOC(=O)C1=C[C@@H](OC(CC)CC)[C@H](NC(C)=O)[C@@H](N)C1 [Oseltamivir, reference compound]",IC50,H1N1 neuraminidase,64 µM
O=c1oc(/C=C/c2ccc(O)c(O)c2)cc2oc(-c3ccc(O)c(O)c3)cc12 [Phellifuropyranone A],antiproliferative activity,[9],antiproliferative activity
CC1=CC[C@@H]([C@@](C)(O)[C@@H]2C[C@H]2C(C)(C)O)CC1 [Phellilane L],antimicrobial activity,P. gingivalis,antimicrobial activities
C/C=C(\CO)CC[C@@H](C)[C@H]1CC[C@H]2C3=C(C(=O)C[C@]12C)[C@@]1(C)CC[C@@H](O)[C@](C)(O)[C@@H]1C[C@@H]3O [antcamphorol C],cytotoxicity,U251 and MCF-7,cytotoxic activities
C=C(CC[C@@H](C)[C@H]1CC[C@H]2C3=CC[C@H]4[C@H](C)[C@@H](O)CC[C@]4(C)C3=C[C@@H](O)[C@]12C)C(C)C [antcamphorol H],cytotoxicity,U251 and MCF-7,cytotoxic activities
C=C(CC[C@@H](C)[C@H]1CC[C@H]2C3=C(C(=O)C[C@]12C)[C@@]1(C)CCC(=O)[C@@H](C)[C@@H]1C[C@H]3O)C(C)C [antcamphorol J],ROS scavenging,[10],ROS scavenging abilities
C=C(C)[C@@H]1CC[C@]2(CO)CC[C@]3(C)[C@H](CC[C@@H]4[C@@]5(C)CC[C@H](O)C(C)(C)[C@@H]5CC[C@]43C)[C@@H]12 [betulin],proliferation,[11],inhibited the proliferation
C=C(C)[C@@H]1CC[C@]2(C(=O)O)CC[C@]3(C)[C@H](CC[C@@H]4[C@@]5(C)CC[C@H](O)C(C)(C)[C@@H]5CC[C@]43C)[C@@H]12 [betulinic acid],proliferation,[11],inhibited the proliferation
"COC1=C(OC)C(=O)C(C)=CC1=O [coenzyme Q0, 2,3-dimethoxy-5-methyl-1,4-benzoquinone]",apoptosis and autophagic cell death,[12],inducing apoptosis and autophagic cell death
same,apoptosis and autophagic cell death,human glioblastoma cells,inducing apoptosis and autophagic cell death
CC1=CC(=O)[C@H](c2c(O)cc(/C=C/c3ccc(O)c(O)c3)oc2=O)[C@@H](c2ccc(O)c(O)c2)O1 [davallialactone],aldose reductase inhibition,aldose reductase,capable of inhibiting aldose reductase
O=c1oc2c(O)c(O)cc3c(=O)oc4c(O)c(O)cc1c4c23 [ellagic acid],aldose reductase inhibition,aldose reductase,capable of inhibiting aldose reductase
CC(C)(O)[C@H]1CC[C@H]([C@H]2CC[C@@]3(C)C4=C(CC[C@]23C)[C@@]2(C)CC[C@H](O)C(C)(C)[C@@H]2CC4)[C@H]1O [inonotsutriol A],NO inhibition,NO,NO-inhibiting effects
C[C@H](/C=C/C=O)[C@H]1CC[C@@]2(C)C3=C(CC[C@]12C)[C@@]1(C)CC[C@H](O)C(C)(C)[C@@H]1CC3 [inonotusane C],cytotoxicity,A549 and HeLa cell lines,cytotoxic activities
CC1=CC(=O)C2(O1)c1c(cc(/C=C/c3ccc(O)c(O)c3)oc1=O)OC2c1ccc(O)c(O)c1 (stereo not drawn) [inoscavin A],cell viability,[13],improve cell viabilities
C=C1CCCC(C)(C)[C@H]1[C@H]1O[C@@H]1/C(C)=C/C(=O)O [phellidene E],antimicrobial activity,P. gingivalis,did not show any detectable activities
O=C1C=C(/C=C/c2ccc(O)c(O)c2)OC12C(c1cc3oc(=O)c4cc(O)c(O)cc4c3c(=O)o1)=Cc1cc(O)c(O)cc12 (stereo not drawn) [phelligridin G],antiproliferative activity,[9],antiproliferative activity
"CC(C)(C)c1cc(O)ccc1O [tert-Butylhydroquinone (TBHQ), tert-Butylhydroquinone]",EC50,[14],11.2 µg/mL
CC(C)=CCC[C@@H](C(=O)O)[C@H]1CC[C@@]2(C)C3=C(CC[C@]12C)[C@@]1(C)CC[C@H](O)C(C)(C)[C@@H]1CC3 [trametenolic acid],anti-proliferative activity,[8],anti-proliferative activities
same,NO inhibition,NO,NO-inhibiting effects
"O=C1O[C@H]([C@@H](O)CO)C(O)=C1O [vitamin C, ascorbic acid]",EC50,[14],6 µg/mL
antcamphorol G,ROS scavenging,[10],ROS scavenging abilities
antcamphorol I,ROS scavenging,[10],ROS scavenging abilities
antroquinonol Y,effect on normal cells,normal cells (LO2),without affecting normal cells
same,cytotoxicity,[3],significant cytotoxic effects
inonotusol I,interaction with iNOS protein,[15],capable of interacting with inducible-nitric oxide synthase (iNOS) protein
inonotusol L,interaction with iNOS protein,[15],capable of interacting with inducible-nitric oxide synthase (iNOS) protein
phellilane H,reducing power,[2],weak reducing power
same,antimicrobial activity,P. gingivalis,did not show any detectable activities
